Laboratory results as given in ChEMBL document CHEMBL4130448, “Novel SERMs based on 3-aryl-4-aryloxy-2H-chromen-2-one skeleton - A possible way to dual ERα/VEGFR-2 ligands for treatment of breast cancer” (Eur J Med Chem, 2017).
Activity calls are given as the source filed them. No cut-off for these calls is given here.

Tests used:
Estrogen receptor = target: T1, Estrogen receptor (Homo sapiens, UniProt P03372); assay: Displacement of fluorescent estrogen ligand from recombinant human ERalpha expressed in insect cells incubated for 2 hrs by polarization
T1 sequence (P03372 whole entry): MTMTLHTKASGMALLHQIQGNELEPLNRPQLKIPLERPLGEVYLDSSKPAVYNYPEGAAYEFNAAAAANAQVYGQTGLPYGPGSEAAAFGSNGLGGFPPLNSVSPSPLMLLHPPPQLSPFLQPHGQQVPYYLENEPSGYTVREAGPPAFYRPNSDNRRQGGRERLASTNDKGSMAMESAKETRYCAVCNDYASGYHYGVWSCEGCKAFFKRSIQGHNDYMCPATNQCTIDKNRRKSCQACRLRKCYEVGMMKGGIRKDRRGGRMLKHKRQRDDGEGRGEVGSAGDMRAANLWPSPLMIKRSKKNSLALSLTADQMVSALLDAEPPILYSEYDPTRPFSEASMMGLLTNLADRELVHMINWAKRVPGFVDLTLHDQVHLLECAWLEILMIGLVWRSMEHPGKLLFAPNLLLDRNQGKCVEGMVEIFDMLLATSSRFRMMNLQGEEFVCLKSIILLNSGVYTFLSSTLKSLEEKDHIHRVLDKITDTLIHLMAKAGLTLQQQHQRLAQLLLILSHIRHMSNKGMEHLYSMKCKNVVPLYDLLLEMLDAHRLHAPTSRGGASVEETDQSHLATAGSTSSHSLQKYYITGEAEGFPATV

Ishikawa = assay: cells; conditions: Homo sapiens, 48 h
Description: Cytotoxicity in human Ishikawa cells assessed as inhibition of cell growth incubated for 48 hrs by MTT assay

MCF7 [1] = assay: cells; conditions: Homo sapiens, MCF7, 48 h
Description: Cytotoxicity in human MCF7 cells assessed as inhibition of cell growth incubated for 48 hrs by MTT assay

MCF7 [2] = assay: Induction of cell cycle arrest in human MCF7 cells assessed as accumulation at G2/M phase at 6 uM incubated for 24 hrs by propidium iodide staining flow cytometry (reference value: 26.84%); type: functional
MCF7 [3] = assay: Effect on total ERK1/2 protein level in human MCF7 cells at 2 to 4 uM incubated for 24 hrs by Western blot method; type: ADME, cell-based; conditions: mcf7, 24 h
MCF7 [4] = assay: Induction of cell cycle arrest in human MCF7 cells assessed as reduction in accumulation at S phase incubated for 24 hrs by propidium iodide staining flow cytometry; type: functional, cell-based
MCF7 [5] = assay: Induction of cell cycle arrest in human MCF7 cells assessed as accumulation at G0/G1 phase at 6 uM incubated for 24 hrs by propidium iodide staining flow cytometry (reference value: 48.52%); type: functional
MCF7 [6] = assay: Induction of cell cycle arrest in human MCF7 cells assessed as accumulation at S phase at 6 uM incubated for 24 hrs by propidium iodide staining flow cytometry (reference value: 24.64%); type: functional
MCF7 [7] = assay: Induction of cell cycle arrest in human MCF7 cells assessed as accumulation at G2/M phase at 4 uM incubated for 24 hrs by propidium iodide staining flow cytometry (reference value: 26.84%); type: functional
MCF7 [8] = assay: Induction of cell cycle arrest in human MCF7 cells assessed as reduction in accumulation at G2/M phase incubated for 24 hrs by propidium iodide staining flow cytometry; type: functional, cell-based
MCF7 [9] = assay: Induction of cell cycle arrest in human MCF7 cells assessed as accumulation at G0/G1 phase at 2 uM incubated for 24 hrs by propidium iodide staining flow cytometry (reference value: 48.52%); type: functional
MCF7 [10] = assay: Induction of cell cycle arrest in human MCF7 cells assessed as accumulation at G0/G1 phase incubated for 24 hrs by propidium iodide staining flow cytometry; type: functional, cell-based
HUVEC = assay: Antiangiogenic activity against HUVEC incubated for 48 hrs by MTT assay; type: functional, cell-based; conditions: Homo sapiens
MCF7 [11] = assay: Effect on total Raf1 protein level in human MCF7 cells at 2 to 4 uM incubated for 24 hrs by Western blot method; type: ADME, cell-based; conditions: mcf7, 24 h
[12] = target: Vascular endothelial growth factor receptor 2 (Homo sapiens) (UniProt P35968); assay: Inhibition of VEGFR2 phosphorylation in human MCF7 cells incubated for 24 hrs by Western blot method; type: cell-based
Chain of Vascular endothelial growth factor receptor 2 (Homo sapiens) (P35968 whole entry): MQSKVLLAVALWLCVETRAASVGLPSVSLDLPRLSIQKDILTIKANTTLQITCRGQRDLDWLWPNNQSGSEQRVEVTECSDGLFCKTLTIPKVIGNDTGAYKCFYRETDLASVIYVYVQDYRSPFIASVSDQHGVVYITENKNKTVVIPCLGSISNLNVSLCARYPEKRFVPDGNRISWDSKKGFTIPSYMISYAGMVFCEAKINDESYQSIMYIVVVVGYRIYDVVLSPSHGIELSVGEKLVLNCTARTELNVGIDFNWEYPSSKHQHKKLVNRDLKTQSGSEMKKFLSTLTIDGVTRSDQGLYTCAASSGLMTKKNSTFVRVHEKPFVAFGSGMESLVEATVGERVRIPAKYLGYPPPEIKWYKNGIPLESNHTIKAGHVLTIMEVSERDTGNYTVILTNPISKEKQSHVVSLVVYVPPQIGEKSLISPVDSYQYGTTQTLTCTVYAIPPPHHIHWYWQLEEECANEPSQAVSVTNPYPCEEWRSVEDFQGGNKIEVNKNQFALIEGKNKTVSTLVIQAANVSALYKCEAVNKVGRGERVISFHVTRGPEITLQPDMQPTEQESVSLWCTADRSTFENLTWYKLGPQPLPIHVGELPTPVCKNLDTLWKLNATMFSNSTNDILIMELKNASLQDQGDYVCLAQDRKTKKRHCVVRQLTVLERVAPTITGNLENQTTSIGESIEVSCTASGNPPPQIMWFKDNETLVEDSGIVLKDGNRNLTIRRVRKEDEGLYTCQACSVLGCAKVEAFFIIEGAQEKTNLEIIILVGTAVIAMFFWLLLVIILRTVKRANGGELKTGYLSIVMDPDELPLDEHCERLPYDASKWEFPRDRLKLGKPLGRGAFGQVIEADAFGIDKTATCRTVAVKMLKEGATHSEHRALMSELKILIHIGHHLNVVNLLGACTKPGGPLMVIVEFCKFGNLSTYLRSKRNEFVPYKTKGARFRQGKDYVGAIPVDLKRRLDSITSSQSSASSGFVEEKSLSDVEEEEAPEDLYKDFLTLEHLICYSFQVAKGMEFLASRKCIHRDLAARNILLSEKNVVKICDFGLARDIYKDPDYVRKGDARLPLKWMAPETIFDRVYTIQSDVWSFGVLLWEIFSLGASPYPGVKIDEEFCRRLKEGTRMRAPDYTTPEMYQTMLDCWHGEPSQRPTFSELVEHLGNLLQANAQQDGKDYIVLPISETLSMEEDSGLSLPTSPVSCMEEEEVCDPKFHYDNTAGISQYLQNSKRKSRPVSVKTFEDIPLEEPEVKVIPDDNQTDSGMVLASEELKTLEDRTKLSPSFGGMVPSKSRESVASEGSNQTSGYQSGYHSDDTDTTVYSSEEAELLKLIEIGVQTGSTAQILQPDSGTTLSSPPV

[13] = target: Vascular endothelial growth factor receptor 2 (Homo sapiens) (UniProt P35968); assay: Inhibition of His-tagged human VEGFR2 at 40 uM incubated for 1 hr by HTRF assay
MCF7 [14] = assay: Induction of cell cycle arrest in human MCF7 cells assessed as accumulation at G0/G1 phase at 4 uM incubated for 24 hrs by propidium iodide staining flow cytometry (reference value: 48.52%); type: functional
[15] = target: Vascular endothelial growth factor receptor 2 (Homo sapiens) (UniProt P35968); assay: Inhibition of VEGFR2 in human MCF7 cells assessed as reduction in p-ERK1/2 protein level incubated for 24 hrs by Western blot method; type: cell-based
[16] = target: Vascular endothelial growth factor receptor 2 (Homo sapiens) (UniProt P35968); assay: Inhibition of VEGFR2 phosphorylation in human MCF7 cells at 2 uM incubated for 24 hrs by Western blot method relative to sunitinib; type: cell-based
MCF7 [17] = assay: Induction of cell cycle arrest in human MCF7 cells assessed as accumulation at S phase at 4 uM incubated for 24 hrs by propidium iodide staining flow cytometry (reference value: 24.64%); type: functional
MCF7 [18] = assay: Induction of cell cycle arrest in human MCF7 cells assessed as accumulation at G2/M phase at 2 uM incubated for 24 hrs by propidium iodide staining flow cytometry (reference value: 26.84%); type: functional
MCF7 [19] = assay: Induction of cell cycle arrest in human MCF7 cells assessed as accumulation at S phase at 2 uM incubated for 24 hrs by propidium iodide staining flow cytometry (reference value: 24.64%); type: functional
[20] = target: Vascular endothelial growth factor receptor 2 (Homo sapiens) (UniProt P35968); assay: Inhibition of VEGFR2 in human MCF7 cells assessed as reduction in p-Raf1 protein level incubated for 24 hrs by Western blot method; type: cell-based

Structure (SMILES) | IC50 (Estrogen receptor) | IC50 (Ishikawa) | IC50 (MCF7 [1]) | also measured
CN(C)CCOc1ccc(Nc2c(-c3ccc(F)cc3)c(=O)oc3cc(O)ccc23)cc1 | 6.62 µM | 24.8 µM | 19.3 µM | 
CCN(CC)CCOc1ccc(Oc2c(-c3ccc(F)cc3)c(=O)oc3cc(O)ccc23)cc1 | 3.55 µM | 17.4 µM | 21.3 µM | 
COc1ccc2c(Oc3ccc(OCCN(C)C)cc3)c(-c3ccc(F)cc3)c(=O)oc2c1 | 8.96 µM | 17.3 µM | 15.3 µM | 
CCN(CC)CCOc1ccc(Nc2c(-c3ccc(F)cc3)c(=O)oc3cc(OC)ccc23)cc1 | > 10 µM | 17.9 µM | 26.3 µM | 
O=c1oc2cc(O)ccc2c(Oc2ccc(OCCN3CCCCC3)cc2)c1-c1ccc(F)cc1 | 2.19 µM | 11.1 µM | 9.54 µM | Activity (MCF7 [2]): 9.85%; Activity (MCF7 [3]): Non-Toxic; Activity (MCF7 [4]): Dose-dependent effect; Activity (MCF7 [5]): 75.46%; Activity (MCF7 [6]): 14.69%; Activity (MCF7 [7]): 16.22%; Activity (MCF7 [8]): Dose-dependent effect; Activity (MCF7 [9]): 60.67%; Activity (MCF7 [10]): Dose-dependent effect; IC50 (HUVEC): 15.7 µM; Activity (MCF7 [11]): Non-Toxic; inhibition [12]: Dose-dependent effect; inhibition [13]: 82.9%; Activity (MCF7 [14]): 65.37%; inhibition [15]: Dose-dependent effect; inhibition [16]: Active; Activity (MCF7 [17]): 18.41%; Activity (MCF7 [18]): 20.81%; Activity (MCF7 [19]): 18.52%; inhibition [20]: Dose-dependent effect
COc1ccc2c(Oc3ccc(OCCN4CCCCC4)cc3)c(-c3ccc(F)cc3)c(=O)oc2c1 | 6.87 µM | 8.41 µM | 9.32 µM | IC50 (HUVEC): 13.6 µM; inhibition [13]: 55.1%
O=c1oc2cc(O)ccc2c(Nc2ccc(OCCN3CCCCC3)cc2)c1-c1ccc(O)cc1 | 3.82 µM | 24.6 µM | 18.7 µM | IC50 (HUVEC): 30.8 µM; inhibition [13]: 83.2%
CC/C(=C(\c1ccccc1)c1ccc(OCCN(C)C)cc1)c1ccccc1 [TAMOXIFEN] |  | 20.7 µM | 14.3 µM | 
CCN(CC)CCOc1ccc(Oc2c(-c3ccc(OC)cc3)c(=O)oc3cc(OC)ccc23)cc1 | > 10 µM | 9.32 µM | 15.3 µM | 
O=c1oc2cc(O)ccc2c(Nc2ccc(OCCN3CCCC3)cc2)c1-c1ccc(O)cc1 | 6.43 µM | 26.7 µM | 20.7 µM | 
COc1ccc2c(Nc3ccc(OCCN(C)C)cc3)c(-c3ccc(F)cc3)c(=O)oc2c1 | > 10 µM | 13.5 µM | 31.6 µM | 
CN(C)CCOc1ccc(Nc2c(-c3ccc(F)cc3)c(=O)oc3ccccc23)cc1 | > 10 µM | 28.5 µM | 32.5 µM | 
CCN(CC)CCOc1ccc(Nc2c(-c3ccc(F)cc3)c(=O)oc3cc(O)ccc23)cc1 | 4.37 µM | 17.2 µM | 17.5 µM | 
COc1ccc(-c2c(Oc3ccc(OCCN4CCCCC4)cc3)c3ccc(OC)cc3oc2=O)cc1 | 9.42 µM | 7.47 µM | 9.62 µM | IC50 (HUVEC): 7.64 µM; inhibition [13]: 67.6%
O=c1oc2cc(O)ccc2c(Oc2ccc(OCCN3CCCCC3)cc2)c1-c1ccc(O)cc1 | 2.62 µM | 28.4 µM | 19.7 µM | IC50 (HUVEC): 23.9 µM; inhibition [13]: 66.1%
COc1ccc(-c2c(Oc3ccc(OCCN4CCCC4)cc3)c3ccc(OC)cc3oc2=O)cc1 | > 10 µM | 8.53 µM | 14.4 µM | 
COc1ccc2c(Oc3ccc(OCCN4CCCC4)cc3)c(-c3ccc(F)cc3)c(=O)oc2c1 | > 10 µM | 15.1 µM | 14.6 µM | 
O=c1oc2cc(O)ccc2c(Oc2ccc(OCCN3CCCC3)cc2)c1-c1ccc(F)cc1 | 4.27 µM | 22.6 µM | 16.8 µM | 

Structure (SMILES) | IC50 (Estrogen receptor) | IC50 (Ishikawa) | IC50 (MCF7 [1]) | also measured
O=c1oc2cc(O)ccc2c(Oc2ccc(OCCN3CCCC3)cc2)c1-c1ccc(O)cc1 | 6.84 µM | 24.5 µM | 23.9 µM | 
O=c1oc2ccccc2c(Nc2ccc(OCCN3CCCC3)cc2)c1-c1ccc(F)cc1 | > 10 µM | 25.7 µM | 26.1 µM | 
CCN(CC)CCOc1ccc(Oc2c(-c3ccc(F)cc3)c(=O)oc3cc(OC)ccc23)cc1 | > 10 µM | 15.7 µM | 16.6 µM | 
COc1ccc(-c2c(Oc3ccc(OCCN(C)C)cc3)c3ccc(OC)cc3oc2=O)cc1 | > 10 µM | 11.4 µM | 17.8 µM | 
COc1ccc2c(Nc3ccc(OCCN4CCCCC4)cc3)c(-c3ccc(F)cc3)c(=O)oc2c1 | 7.96 µM | 8.71 µM | 12.6 µM | IC50 (HUVEC): 9.05 µM; inhibition [13]: 66%
CN(C)CCOc1ccc(Oc2c(-c3ccc(O)cc3)c(=O)oc3cc(O)ccc23)cc1 | 8.43 µM | 37 µM | 41.4 µM | 
CCN(CC)CCOc1ccc(Nc2c(-c3ccc(F)cc3)c(=O)oc3ccccc23)cc1 | > 10 µM | 24.7 µM | 26.4 µM | 
COc1ccc2c(Nc3ccc(OCCN4CCCC4)cc3)c(-c3ccc(F)cc3)c(=O)oc2c1 | > 10 µM | 12.5 µM | 21.5 µM | 
CCN(CC)CCOc1ccc(Oc2c(-c3ccc(O)cc3)c(=O)oc3cc(O)ccc23)cc1 | > 10 µM | > 50 µM | > 50 µM | 
COc1ccc(-c2c(Nc3ccc(OCCN4CCCCC4)cc3)c3ccc(O)cc3oc2=O)cc1 | 6.64 µM | 14.4 µM | 11.4 µM | IC50 (HUVEC): 16.2 µM; inhibition [13]: 59.3%
O=c1oc2cc(O)ccc2c(Nc2ccc(OCCN3CCCCC3)cc2)c1-c1ccc(F)cc1 | 3.86 µM | 10.4 µM | 7.06 µM | IC50 (HUVEC): 9.92 µM; inhibition [13]: 88.4%
O=c1oc2ccccc2c(Nc2ccc(OCCN3CCCCC3)cc2)c1-c1ccc(F)cc1 | 7.79 µM | 10.3 µM | 11.3 µM | IC50 (HUVEC): 17.2 µM; inhibition [13]: 41.8%
CN(C)CCOc1ccc(Oc2c(-c3ccc(F)cc3)c(=O)oc3cc(O)ccc23)cc1 | 6.43 µM | 18.7 µM | 16.6 µM | 
CN(C)CCOc1ccc(Nc2c(-c3ccc(O)cc3)c(=O)oc3cc(O)ccc23)cc1 | 8.21 µM | 30.2 µM | 28.4 µM | 
COc1cc2/c(=N/c3ccc(Br)cc3F)nc[nH]c2cc1OCC1CCN(C)CC1 [VANDETANIB] |  |  | 16.5 µM | IC50 (HUVEC): 6.76 µM; inhibition [13]: 95.7%
O=c1oc2cc(O)ccc2c(Nc2ccc(OCCN3CCCC3)cc2)c1-c1ccc(F)cc1 | 4.53 µM | 21.5 µM | 13.9 µM | 
CCN(CC)CCOc1ccc(Nc2c(-c3ccc(O)cc3)c(=O)oc3cc(O)ccc23)cc1 | 5.97 µM | 29.1 µM | 27.5 µM | 
